Assay results reported in PubChem BioAssay (NCI).
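These data come from cells grown in 96-well plates and exposed to compound for 48 hours at five concentrations. GI50 marks 50% less growth. At the TGI there is no net growth.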

Tests used:
Assay in all cases: growth of human tumour cells (NCI), 48 h
[1] = tested on: 786-0 renal
[2] = tested on: A498 renal
[3] = tested on: A549 NSCLC
[4] = tested on: ACHN renal
[5] = tested on: BT-549 breast
[6] = tested on: CAKI-1 renal
[7] = tested on: CCRF-CEM leukemia
[8] = tested on: COLO 205 colon
[9] = tested on: DU-145 prostate
[10] = tested on: EKVX NSCLC
[11] = tested on: HCC-2998 colon
[12] = tested on: HCT-116 colon
[13] = tested on: HCT-15 colon
[14] = tested on: HL-60(TB) leukemia
[15] = tested on: HOP-62 NSCLC
[16] = tested on: HOP-92 NSCLC
[17] = tested on: HS 578T breast
[18] = tested on: HT29 colon
[19] = tested on: IGROV1 ovarian
[20] = tested on: K-562 leukemia
[21] = tested on: KM12 colon
[22] = tested on: LOX IMVI melanoma
[23] = tested on: M14 melanoma
[24] = tested on: MALME-3M melanoma
[25] = tested on: MCF7 breast
[26] = tested on: MDA-MB-231 breast
[27] = tested on: MDA-MB-435
[28] = tested on: MOLT-4 leukemia
[29] = tested on: NCI-H226 lung
[30] = tested on: NCI-H23 lung
[31] = tested on: NCI-H460 lung
[32] = tested on: NCI-H522 lung
[33] = tested on: NCI/ADR-RES ovarian
[34] = tested on: OVCAR-3 ovarian
[35] = tested on: OVCAR-4 ovarian
[36] = tested on: OVCAR-5 ovarian
[37] = tested on: OVCAR-8 ovarian
[38] = tested on: PC-3 prostate
[39] = tested on: RPMI-8226 leukemia
[40] = tested on: SF-268 CNS
[41] = tested on: SF-295 CNS
[42] = tested on: SF-539 CNS
[43] = tested on: SK-MEL-2 melanoma
[44] = tested on: SK-MEL-28 melanoma
[45] = tested on: SK-MEL-5 melanoma
[46] = tested on: SK-OV-3 ovarian
[47] = tested on: SN12C renal
[48] = tested on: SNB-19 CNS
[49] = tested on: SNB-75 CNS
[50] = tested on: SR leukemia
[51] = tested on: SW-620 colon
[52] = tested on: T-47D breast
[53] = tested on: TK-10 renal
[54] = tested on: U251 CNS
[55] = tested on: UACC-257 melanoma
[56] = tested on: UACC-62 melanoma
[57] = tested on: UO-31 renal

Question: `CCN1C(=O)N(CC)C2SC(N/N=C/c3cccs3)=NC21` (stereo not drawn) was tested. Which GI50 [1] did it give?
Answer: The GI50 was 643 nM.

Question: What about the TGI [1] of the same compound?
Answer: Its TGI is > 100000 nM.

Question: What about the GI50 [2] of the same compound?
Answer: The GI50 was 131 nM.

Question: And the TGI [2]?
Answer: The TGI was 705 nM.

Question: And the GI50 [3]?
Answer: Its GI50 is 431 nM.

Question: And the TGI [3]?
Answer: Its TGI is > 100000 nM.

Question: What about the GI50 [4] of the same compound?
Answer: The GI50 was 581 nM.

Question: And the TGI [4]?
Answer: Its TGI is > 100000 nM.

Question: What about the GI50 [5] of the same compound?
Answer: Its GI50 is 211 nM.

Question: And the TGI [5]?
Answer: The TGI was 1270 nM.

Question: What about the GI50 [6] of the same compound?
Answer: Its GI50 is 191 nM.

Question: And the TGI [6]?
Answer: The TGI was > 100000 nM.

Question: What about the GI50 [7] of the same compound?
Answer: Its GI50 is 360 nM.

Question: What about the TGI [7] of the same compound?
Answer: Its TGI is > 100000 nM.

Question: What about the GI50 [8] of the same compound?
Answer: The GI50 was 248 nM.

Question: What about the TGI [8] of the same compound?
Answer: Its TGI is 723 nM.

Question: And the GI50 [9]?
Answer: The GI50 was 483 nM.

Question: And the TGI [9]?
Answer: Its TGI is > 100000 nM.

Question: And the GI50 [10]?
Answer: The GI50 was 655 nM.

Question: And the TGI [10]?
Answer: The TGI was > 100000 nM.

Question: And the GI50 [11]?
Answer: Its GI50 is 313 nM.

Question: What about the TGI [11] of the same compound?
Answer: The TGI was > 93800 nM.

Question: And the GI50 [12]?
Answer: Its GI50 is 281 nM.

Question: And the TGI [12]?
Answer: Its TGI is 5430 nM.

Question: What about the GI50 [13] of the same compound?
Answer: The GI50 was 202 nM.

Question: And the TGI [13]?
Answer: The TGI was > 100000 nM.

Question: What about the GI50 [14] of the same compound?
Answer: The GI50 was 186 nM.

Question: What about the TGI [14] of the same compound?
Answer: The TGI was 658 nM.

Question: What about the GI50 [15] of the same compound?
Answer: Its GI50 is 470 nM.

Question: And the TGI [15]?
Answer: The TGI was > 100000 nM.

Question: And the GI50 [16]?
Answer: Its GI50 is 922 nM.

Question: And the TGI [16]?
Answer: The TGI was > 23300 nM.

Question: And the GI50 [17]?
Answer: The GI50 was 286 nM.

Question: What about the TGI [17] of the same compound?
Answer: The TGI was > 100000 nM.

Question: And the GI50 [18]?
Answer: The GI50 was 260 nM.

Question: What about the TGI [18] of the same compound?
Answer: The TGI was 3200 nM.

Question: And the GI50 [19]?
Answer: The GI50 was 579 nM.

Question: And the TGI [19]?
Answer: The TGI was > 100000 nM.

Question: And the GI50 [20]?
Answer: The GI50 was 91.2 nM.

Question: And the TGI [20]?
Answer: Its TGI is > 100000 nM.

Question: What about the GI50 [21] of the same compound?
Answer: Its GI50 is 232 nM.

Question: And the TGI [21]?
Answer: The TGI was > 100000 nM.

Question: And the GI50 [22]?
Answer: Its GI50 is 446 nM.

Question: And the TGI [22]?
Answer: The TGI was > 100000 nM.

Question: And the GI50 [23]?
Answer: Its GI50 is 192 nM.

Question: What about the TGI [23] of the same compound?
Answer: Its TGI is > 100000 nM.

Question: And the TGI [24]?
Answer: Its TGI is > 100000 nM.

Question: What about the GI50 [25] of the same compound?
Answer: The GI50 was 119 nM.

Question: And the TGI [25]?
Answer: The TGI was > 100000 nM.

Question: What about the GI50 [26] of the same compound?
Answer: The GI50 was 540 nM.

Question: What about the TGI [26] of the same compound?
Answer: Its TGI is > 100000 nM.

Question: And the GI50 [27]?
Answer: The GI50 was 33.8 nM.

Question: What about the TGI [27] of the same compound?
Answer: Its TGI is 205 nM.

Question: And the GI50 [28]?
Answer: The GI50 was 465 nM.

Question: What about the TGI [28] of the same compound?
Answer: Its TGI is > 100000 nM.

Question: And the GI50 [29]?
Answer: The GI50 was 1430 nM.

Question: And the TGI [29]?
Answer: Its TGI is > 100000 nM.

Question: And the GI50 [30]?
Answer: Its GI50 is 418 nM.

Question: And the TGI [30]?
Answer: The TGI was > 100000 nM.

Question: What about the GI50 [31] of the same compound?
Answer: Its GI50 is 333 nM.

Question: What about the GI50 [32] of the same compound?
Answer: The GI50 was 81.1 nM.

Question: What about the TGI [32] of the same compound?
Answer: The TGI was 386 nM.

Question: What about the GI50 [33] of the same compound?
Answer: Its GI50 is 356 nM.

Question: And the TGI [33]?
Answer: Its TGI is > 100000 nM.

Question: What about the GI50 [34] of the same compound?
Answer: The GI50 was 333 nM.

Question: What about the TGI [34] of the same compound?
Answer: Its TGI is 2070 nM.

Question: What about the TGI [35] of the same compound?
Answer: The TGI was > 100000 nM.

Question: What about the GI50 [36] of the same compound?
Answer: Its GI50 is 527 nM.

Question: What about the TGI [36] of the same compound?
Answer: Its TGI is > 100000 nM.

Question: And the GI50 [37]?
Answer: Its GI50 is 398 nM.

Question: And the GI50 [38]?
Answer: Its GI50 is 345 nM.

Question: What about the TGI [38] of the same compound?
Answer: Its TGI is > 100000 nM.

Question: And the GI50 [39]?
Answer: Its GI50 is 348 nM.

Question: What about the TGI [39] of the same compound?
Answer: The TGI was > 100000 nM.

Question: What about the GI50 [40] of the same compound?
Answer: Its GI50 is 1710 nM.

Question: And the TGI [40]?
Answer: Its TGI is > 100000 nM.

Question: And the GI50 [41]?
Answer: The GI50 was 262 nM.

Question: And the TGI [41]?
Answer: The TGI was > 100000 nM.

Question: And the GI50 [42]?
Answer: Its GI50 is 198 nM.

Question: And the TGI [42]?
Answer: The TGI was 823 nM.

Question: And the GI50 [43]?
Answer: The GI50 was 360 nM.

Question: And the TGI [43]?
Answer: Its TGI is > 100000 nM.

Question: What about the GI50 [44] of the same compound?
Answer: The GI50 was > 19700 nM.

Question: What about the TGI [44] of the same compound?
Answer: The TGI was > 100000 nM.

Question: And the GI50 [45]?
Answer: Its GI50 is 523 nM.

Question: What about the TGI [45] of the same compound?
Answer: Its TGI is 3360 nM.

Question: And the GI50 [46]?
Answer: Its GI50 is 532 nM.

Question: What about the TGI [46] of the same compound?
Answer: The TGI was > 100000 nM.

Question: What about the GI50 [47] of the same compound?
Answer: Its GI50 is 653 nM.

Question: And the TGI [47]?
Answer: Its TGI is > 100000 nM.

Question: What about the GI50 [48] of the same compound?
Answer: Its GI50 is 428 nM.

Question: And the TGI [48]?
Answer: The TGI was > 100000 nM.

Question: And the GI50 [49]?
Answer: The GI50 was 122 nM.

Question: And the GI50 [50]?
Answer: The GI50 was 54.6 nM.

Question: And the TGI [50]?
Answer: The TGI was > 26800 nM.

Question: And the GI50 [51]?
Answer: Its GI50 is 249 nM.

Question: What about the TGI [51] of the same compound?
Answer: The TGI was > 100000 nM.

Question: And the GI50 [52]?
Answer: The GI50 was > 45100 nM.

Question: And the TGI [52]?
Answer: The TGI was > 100000 nM.

Question: And the TGI [53]?
Answer: The TGI was > 100000 nM.

Question: And the GI50 [54]?
Answer: Its GI50 is 318 nM.

Question: What about the TGI [54] of the same compound?
Answer: The TGI was > 32600 nM.

Question: And the GI50 [55]?
Answer: The GI50 was 1050 nM.

Question: What about the TGI [55] of the same compound?
Answer: Its TGI is > 100000 nM.

Question: What about the GI50 [56] of the same compound?
Answer: The GI50 was 141 nM.

Question: What about the TGI [56] of the same compound?
Answer: Its TGI is > 100000 nM.

Question: What about the GI50 [57] of the same compound?
Answer: The GI50 was 595 nM.

Question: What about the TGI [57] of the same compound?
Answer: The TGI was > 100000 nM.
